Test results as given in patent US20140363845A1, “CHOLESTEROL-BASED MEDIA SUPPLEMENTS FOR CELL CULTURE” (Biogen Idec MA Inc., priority 2011, published 2014).

Assays:
NS0 cells [1] = experiment: shake flask cell growth in medium held in WAVE Bioreactor bag; set-up: species or system murine; conditions: based on medium hold study and shake flask growth and viability data
Experimental: (§1) The rate of cholesterol depletion from the culture medium in single-use disposable bioreactor bags was determined. A medium hold study was performed in which 1.4 L of fresh pre-warmed culture medium containing 2.5 mg/L cholesterol (1 ml GCLC/liter medium) was added into a 2 L WAVE BIOREACTOR™ bag. The bag was then incubated under standard culture conditions, and 200 ml medium aliquots were aseptically removed from the bag at 15 min, 4 h, 7.5 h and 22 h incubation times. The medium aliquots at each time point were analyzed for cholesterol concentration (FIG. 1) and used to inoculate shake flask cultures seeded at 4×10^5 cells/ml. Shake-flask cultures were passaged for three days under standard conditions. A shake-flask control culture (no prior exposure to WAVE Bioreactor™ bag) containing 2.5 mg/L cholesterol (1 ml GCLC per liter medium) was seeded in parallel. Viable cell density and viability were measured every 24 hours (FIG. 2).
A cholesterol-dependent NS0 cell line expressing recombinant antibody was used in the study. The culture medium used was a chemically defined medium formulation. […]
(§2) Viable cell density was determined using a Cedex Automated Cell Culture Analyzer (Roche Innovatis AG). pH and pCO2 were measured off-line using a BioProfile pHOx analyzer (Nova Biomedical). Cholesterol concentration was measured using GC analysis by Invitrogen Medium Analytical Services.

NS0 cells [2] = experiment: cholesterol dosing in high cell density pseudo-perfusion shake flask culture; assay type: cell-based, murine; conditions: seed density 8×10^6 cells/ml
Experimental: FIG. 5A and FIG. 5B are graphs of a cholesterol dosing study in high cell density cell culture generated using pseudo-perfusion mode. […] Pseudo-perfusion cultures were established in shake flasks using growth medium supplement with GCLC at the following concentrations: 2.5 mg/L (▪), 7.5 mg/L (▴), 10.0 mg/L (0) to 12.5 mg/L (∘). Full volume medium exchanges were carried out on a daily basis. […] There was full volume exchange of medium in the shake flasks on a daily basis. The initial seed density was 8×10^6 cells/ml, and one volume of fresh growth medium was exchanged daily starting on day 1 post inoculation.

[3] = medium hold study: cholesterol adsorption in disposable WAVE Bioreactor bag; assay type: physicochemical; conditions: medium with 2.5 mg/L cholesterol (1 ml GCLC/liter), after 22 hours of incubation in 2 L WAVE Bioreactor bag
Experimental: as §1, §2

NS0 cells [4] = conditions: ethanol dose study
Experimental: Cells were suspended in fresh medium containing increased amount of GCLC at concentrations of 5 mg/L and 7.5 mg/L and then incubated for 3 days in 2 L bags under standard cell culture conditions.

| SMILES | cholesterol concentration in the medium to be maintained to support cell growth (NS0 cells [1]) | support of cell growth (NS0 cells [2]; 2.5 mg total cholesterol/L, daily full volume medium exchange) | cholesterol concentration required to support growth (NS0 cells [2]; high cell density pseudo-perfusion culture) [mg/L] | cholesterol concentration in the medium [3] | ethanol concentration at which cell growth was not inhibited (NS0 cells [4]) |
| --- | --- | --- | --- | --- | --- |
| CC(C)CCC[C@@H](C)[C@H]1CC[C@H]2[C@@H]3CC=C4C[C@@H](O)CC[C@]4(C)[C@H]3CC[C@]12C [cholesterol] | above 1.0 mg/L | insufficient to support growth | > 7.5 | below detectable limits |  |
| CCO [ethanol] |  |  |  |  | below 2% |
